Results: patent US10183011B2, “Anti-depression compounds” (Board of Regents of the University of Texas System, priority 2009, dated 2019)

How the values were obtained:
SNc dopaminergic neurons = experiment: MPTP-toxicity to SNc dopaminergic neurons, treatment started 24 hours after the last MPTP dose; format: in vivo, mouse (C57Bl/6); details: for dopaminergic axons in the striatum (TH staining): 20 mg/kg/day
Protocol: FIG. 29A and FIG. 29B. Neuroprotective efficacy of P7C3 and P7C3A20 from MPTP-toxicity to SNc dopaminergic neurons. FIG. 29A—Test compounds were evaluated by dose response assay for their ability to block MPTP-neurotoxicity in the SNc. […] VEH group contained 30 animals: 15 animals that received the P7C3A20/P7C3 vehicle, and 15 animals that received Dimebon vehicle (saline). […] Representative immunohistochemical pictures of TH-staining in the SNc are shown below the graph. Dosing is expressed as total mg/day, and was administered intraperitoneally in divided doses twice daily. Data are expressed as mean±SEM. […] P7C3A20 does so with greater effect, and Dimebon offers no protection. Striatal sections were obtained from the same mice used in FIG. 2, and compound treatment groups are from mice that received a dose of 20 mg/kg/d.
We compared the protective efficacy of our agents in the Tatton and Kish model of MPTP administration, which induces prolonged apoptotic death of SNc dopaminergic neurons lasting about 3 weeks after a short course of daily MPTP administration. Mice were treated daily for 5 days with 30 mg/kg/day free base MPTP. On the sixth day, 24 hours after receiving the fifth and final dose of MPTP, daily treatment with P7C3, P7C3A20, Dimebon or vehicle was initiated. […] Dose-response studies were conducted in which mice received twice daily doses of each compound (or vehicle) for the ensuing 21 days (FIG. 29A). […] At the end of the 21 day treatment period, mice were sacrificed by transcardial perfusion with 4% paraformaldehyde, and fixed brains were sectioned through the striatum and SNc at 30 μM intervals. Every fourth section (spaced 120 μM apart) was stained with antibodies specific to tyrosine hydroxylase (TH) (Abcam, rabbit anti-TH, 1:2500). The TH enzyme catalyzes the conversion of the amino acid L-tyrosine to L-3,4-dihydroxyphenylalanine (L-DOPA), which serves as the precursor for dopamine. TH staining thus provides a means to immunohistochemically identify dopaminergic neurons. By counting the number of TH+ cells in the SNc, we were able to assess the neuroprotective efficacy of the three chemicals following MPTP exposure. All microscopic analysis was performed by two investigators, blind to treatment group.
15 adult male C57Bl/6 mice were individually housed for one week and then injected daily for 5 days with 30 mg/kg/day (i.p.) free base MPTP (Sigma). On day 6, 24 hours after receiving the fifth and final dose of MPTP, daily treatment with P7C3, P7C3A20, Dimebon or vehicle was initiated. Mice were housed in disposable caging, and protective gear and precautions were implemented for handling MPTP in accordance with UT Southwestern Medical Center policy. Dose response studies were conducted in which mice received twice daily doses of each compound (or vehicle) by intraperitoneal injection for the following 21 days, after which mice were sacrificed by transcardial perfusion with 4% paraformaldehyde. Brains were dissected, fixed overnight in 4% paraformaldehyde, and cryoprotected in sucrose for freezing by standard procedures. Frozen brains were sectioned through the striatum and SNc at 30 uM intervals, and every fourth section (spaced 120 μM apart) was stained with antibodies directed against tyrosine hydroxylase (TH) (Abcam, rabbit anti-TH, 1:2500). Diaminobenzidine was used as a chromagen, and tissue was counter-stained with hematoxylin to aid in visualization of the neuroanatomy. Images were analyzed with a Nikon Eclipse 90i motorized research microscope with Plan Apo lenses coupled with Metamorph Image Acquisition software (Nikon). TH+ neurons were counted with Image J software (NIH) in every section by 2 blinded investigators and results were averaged and multiplied by the sectioning interval to determine the total number of TH+ neurons per SNc.

G93A-SOD1 mutant mice = experiment: Accelerating rotarod test in G93A-SOD1 mice, treatment from day 80; format: in vivo, mouse; details: 20 mg/kg/day i.p. from day 80
Protocol: FIG. 35. P7C3A20 preserves performance in the accelerating rotarod test when administered at the time of disease onset to G93A-SOD1 mutant mice. Treatment of G93A-SOD1 mutant mice with 20 mg/kg/d of P7C3A20, P7C3 or Dimebon, or the appropriate vehicle, was initiated on day 80, with 20 mice per group. All compounds were administered at 20 mg/kg/day i.p. in divided doses. […] Only sibling pairs were analyzed at each time point. By week 16, there were 13 compound-vehicle pairs remaining in each group. […] All testing and analysis was performed blind to treatment group.
Having observed evidence of compound-mediated protection of spinal cord motor neurons, we next sought to determine whether motor performance might also be protected in these mice. Motor performance was monitored by the accelerating rotarod task standardly employed for evaluation of rodent models of ALS. We again initiated administration of P7C3, P7C3A20 or Dimebon on day 80, at 20 mg/kg/day, starting with no less than 20 mice per treatment group. Each animal in each group had its own sibling-matched vehicle control, and testing was conducted blind to treatment group. Rotarod training was initiated on day 50 for 2 days, and repeated weekly testing was conducted every 7 days thereafter. Each mouse was subjected to four trials of 600 seconds each, with a 20 minute recovery break between each trial. The latency time to fall was averaged across all 4 trials.
Beginning on day 50, mice were trained on the accelerating rotarod using Colombia Instruments Rotamex-5. Training consisted of mice being placed on a rotarod moving at 5 rpm for 300 seconds. Mice were trained to stay on the rotarod for the entire 300 seconds. If a mouse fell, it was placed back on the rotarod and the 300 second trial was started again. Training took place on two consecutive days. On day 52, mice ran their first full rotarod test, as described in Current Protocols for Neuroscience. The rotarod began at 4 rpm and accelerated to 40 rpm over 600 seconds, increasing by 1.25 rpm every 20 seconds. The time to fall was automatically recorded. […]

OC(CNc1cccc2ccccc12)Cn1c2ccc(Cl)cc2c2cc(Cl)ccc21 (stereo not drawn) [Example P7C3-S184]
activity in the MPTP protection assay (SNc dopaminergic neurons; new analogs, 10 mice for each compound): inactive in both in vivo assays

Cc1ccc2c(c1)c1c(n2CCc2ccc(C)nc2)CCN(C)C1 [Dimebon, 2,3,4,5-Tetrahydro-2,8-dimethyl-5-(2-(6-methyl-3-pyridyl)ethyl)-1H-pyrido(4,3-b)indole, reference compound]
dopaminergic axons in the striatum (TH staining) (SNc dopaminergic neurons): offered no protection of dopaminergic axons in the striatum
protection from MPTP (SNc dopaminergic neurons; any dose): failed to confer any measurable degree of protection from MPTP at any dose
accelerating rotarod performance (G93A-SOD1 mutant mice): insufficiently active to preserve motor function

COc1cccc(NCC(F)Cn2c3ccc(Br)cc3c3cc(Br)ccc32)c1 (stereo not drawn) [Example P7C3A20, N-(3-(3,6-dibromo-9H-carbazol-9-yl)-2-fluoropropyl)-3-methoxyaniline]
onset of efficacy, over VEH (SNc dopaminergic neurons; 1 mg/kg/day for 21 days): 30%
dopaminergic axons in the striatum (TH staining) (SNc dopaminergic neurons): almost completely blocked depletion of dopaminergic axons in the striatum
number of dopaminergic neurons in the SNc relative to normal mice not exposed to MPTP (SNc dopaminergic neurons; 20 mg/kg/day for 21 days): about 85%
accelerating rotarod performance (G93A-SOD1 mutant mice): showed significantly better performance

OC(CNc1ccccc1)Cn1c2ccc(Br)cc2c2cc(Br)ccc21 (stereo not drawn) [Example P7C3]
enhanced survival of TH+ SNc neurons over VEH (SNc dopaminergic neurons; 5 mg/kg/day for 21 days): about 40%
dopaminergic axons in the striatum (TH staining) (SNc dopaminergic neurons): qualitatively notable protection
protection relative to vehicle (SNc dopaminergic neurons; 20 mg/kg/day for 21 days): ~60%
accelerating rotarod performance (G93A-SOD1 mutant mice): insufficiently active to preserve motor function
